Patent US11981953B2, “Method to screen compounds for antifungal activity and pharmaceutical compositions and methods to treat fungal diseases by inhibiting spore germination” (WISCONSIN ALUMNI RESEARCH FOUNDATION, priority 2018, dated 2024)
Where a name gives a salt, the structure may show the parent alone. Read-outs that look alike come from different tables or passages of the source.

Tests used:
Assay type in all cases: cell-based
[1] = test system: Cryptococcus neoformans spore germination; assay: High throughput nanoluciferase screen of spore germination (L1300 Selleck FDA-Approved Drug Library)
Source text: (§1) To identify inhibitors of Cryptococcus neoformans spore germination, a high throughput screen was developed that utilizes a nanoluciferase construct to monitor whether spores germinate in the presence of inhibitor. Briefly a protein luciferase construct was created resulting in a low luciferase signal for non-germinated spores and a high signal from germinated and replicating cells. The screen was coupled with OD600 readings to monitor the ability of compounds to inhibit yeast replication. The examples focused on FDA-approved drugs, as these drugs have the potential of being repurposed into antifungal therapeutics. To determine whether any FDA-approved drugs were able to inhibit Cryptococcus neoformans spore germination and yeast replication, the aforementioned high throughput screen was performed on the L1300 Selleck FDA-Approved Drug Library containing an array of 1108 compounds. This library of compounds is available commercially from Selleck Chemicals, 14408 W Sylvanfield Drive, Houston, Tex. 77014, USA.
(§2) The screening was successful at identifying known antifungal drugs as inhibitors of yeast replication as indicated by an OD600 signal of less than 75% of the negative control (Table 2). For the purpose of these examples, antifungal drugs were defined as any FDA-approved drug used in the treatment of fungal infections. Of these 23 known antifungal drugs, only six (6) were identified as inhibitors of spore germination, indicated by a luciferase signal of less than 30% of the negative control.

[2] = test system: Cryptococcus neoformans yeast replication; settings: signal relative to negative control
Source text: as §1, §2

[3] = test system: Cryptococcus neoformans (JEC21); assay: MIC/MFC experiments (EUCAST based), JEC21; settings: for Ability to inhibit yeast growth / replication in MIC and MFC testing: yeast strain not given, data not shown for non-inhibitors
Method: (§3) All minimum inhibitory concentration (MIC) experiments were based on EUCAST methodology. […] After 6-hour incubation, yeast cells were washed in 1×PBS and quantified using a hemocytometer. […] Cryptococcus neoformans cells were incubated for 2 days at 30° C. while Candida albicans strains were incubated for 2 days at 35° C. OD600 readings were used to assess the MIC values for each drug. To determine minimum fungicidal concentrations (MFC) values, 3 μL per well were plated on YPD and allowed to grow for 2 days.

[4] = test system: Cryptococcus neoformans (H99); assay: MIC/MFC experiments (EUCAST based), H99; settings: Cryptococcus neoformans, 48 h
Method: as §3

[5] = test system: Candida albicans (SC5314); assay: MIC/MFC experiments (EUCAST based), Candida albicans; settings: SC5314, 48 h
Method: as §3

[6] = Table 2, antifungal drugs, signal relative to negative control, less than 30% = inhibitor of germination
[7] = Table 2, antifungal drugs, less than 75% = inhibitor of yeast replication
[8] = Table 3, other FDA-approved drugs, signal relative to negative control
[9] = Table 3, other FDA-approved drugs

| Compound | Germination Percent Luciferase Signal [1, 6] [%] | Replication Percent OD600 [2, 7] [%] | Replication Percent OD600 [2, 9] [%] | also measured |
| --- | --- | --- | --- | --- |
| Clc1ccc(C(Cn2ccnc2)OCc2c(Cl)cccc2Cl)c(Cl)c1 (stereo not drawn) [Isoconazole nitrate] | 16.8 | 37.0 | – | – |
| C=CC(=O)N1CCC[C@@H](n2nc(-c3ccc(Oc4ccccc4)cc3)c3c(N)ncnc32)C1 [PCl-32765] | – | – | 70.3 | Germination Percent Luciferase Signal [1, 8]: 10.6% |
| CCC(C)(C)c1ccc(CC(C)CN2C[C@@H](C)O[C@@H](C)C2)cc1 (stereo partly drawn) [Amorolfine HCl] | 88.6 | 41.4 | – | – |
| CC(C)(C)C(=O)C(Oc1ccc(Cl)cc1)n1ccnc1 (stereo not drawn) [Climbazole] | 151.5 | 38.9 | – | – |
| O=C1[C@H](CC[C@H](O)c2ccc(F)cc2)[C@@H](c2ccc(O)cc2)N1c1ccc(F)cc1 [Ezetimibe] | – | – | 51.3 | Germination Percent Luciferase Signal [1, 8]: 22.0%; Ability to inhibit yeast growth / replication in MIC and MFC testing [3]: unable to inhibit yeast growth |
| Clc1ccc(CCC(Cn2ccnc2)Sc2c(Cl)cccc2Cl)cc1 (stereo not drawn) [Butoconazole nitrate] | 41.5 | 33.4 | – | – |
| Clc1ccc(C(Cn2ccnc2)OCc2ccc(Sc3ccccc3)cc2)c(Cl)c1 (stereo not drawn) [Fenticonazole nitrate] | 49.1 | 36.4 | – | – |
| CCCCCCCCCCCCCCCC[n+]1ccccc1 [Cetylpyridinium chloride] | – | – | 31.9 | Germination Percent Luciferase Signal [1]: 4.2%; MFC ([3]; Cryptococcus neoformans, 48 h): < 0.78 µg/mL; MFC [4]: < 0.78 µg/mL; MFC [5]: 3.13 µg/mL |
| Clc1ccc(COC(Cn2ccnc2)c2ccc(Cl)cc2Cl)c(Cl)c1 (stereo not drawn) [Miconazole nitrate] | 25.5 | 38.2 | – | – |
| CCCCCCCCCCCCCCCC[N+](C)(C)C.[Br-] [Cetrimonium bromide] | – | – | 63.2 | Germination Percent Luciferase Signal [1, 8]: 4.4% |
| CN(Cc1ccc(C(C)(C)C)cc1)Cc1cccc2ccccc12 [Butenafine HCl] | 57.5 | 32.9 | – | – |
| Cc1cccc(N(C)C(=S)Oc2ccc3ccccc3c2)c1 [Tolnaftate] | 60.2 | 47.3 | – | – |
| Caspofungin acetate | 89.7 | 48.5 | – | – |
| CC[C@@H]([C@H](C)O)n1ncn(-c2ccc(N3CCN(c4ccc(OC[C@@H]5CO[C@@](Cn6cncn6)(c6ccc(F)cc6F)C5)cc4)CC3)cc2)c1=O [Posaconazole] | 167.2 | 46.7 | – | – |
| C[C@@H]1[C@H](O)[C@@H](C)/C=C/C=C/C=C/C=C/C=C/C=C/C=C/[C@H](O[C@@H]2O[C@H](C)[C@@H](O)[C@H](N)[C@@H]2O)C[C@@H]2O[C@](O)(C[C@@H](O)C[C@@H](O)[C@H](O)CC[C@@H](O)C[C@@H](O)CC(=O)O[C@H]1C)C[C@H](O)[C@H]2C(=O)O [Amphotericin B] | 84.6 | 45.7 | – | – |
| CCC(C)n1ncn(-c2ccc(N3CCN(c4ccc(OCC5COC(Cn6cncn6)(c6ccc(Cl)cc6Cl)O5)cc4)CC3)cc2)c1=O (stereo not drawn) [Itraconazole] | 159.6 | 58.9 | – | – |

| Compound | Germination Percent Luciferase Signal [1, 6] [%] | Replication Percent OD600 [2, 7] [%] | Replication Percent OD600 [2, 9] [%] | also measured |
| --- | --- | --- | --- | --- |
| CN(C/C=C/c1ccccc1)Cc1cccc2ccccc12 [Naftifine HCl] | 55.5 | 34.5 | – | – |
| C=C1/C(=C\C=C2/CCC[C@]3(C)[C@@H]([C@H](C)/C=C/[C@H](C)C(C)C)CC[C@@H]23)C[C@@H](O)C[C@@H]1O [Doxercalciferol] | – | – | 55.2 | Germination Percent Luciferase Signal [1, 8]: 17.1% |
| CCCCCCCCCCCC[N+](C)(C)CCOc1ccccc1 [Domiphen bromide] | – | – | 63.9 | Germination Percent Luciferase Signal [1, 8]: 4.4% |
| Clc1ccccc1C(c1ccccc1)(c1ccccc1)n1ccnc1 [Clotrimazole] | 65.9 | 34.1 | – | – |
| OC(Cn1cncn1)(Cn1cncn1)c1ccc(F)cc1F [Fluconazole] | 84.0 | 72.2 | – | – |
| Clc1ccc(C(Cn2ccnc2)OCc2ccsc2Cl)c(Cl)c1 (stereo not drawn) [Tioconazoie] | 25.0 | 36.8 | – | – |
| CC(C)(C)CC(C)(C)c1ccc(OCCOCC[N+](C)(C)Cc2ccccc2)cc1 [Benzethonium chloride] | – | – | 30.3 | Germination Percent Luciferase Signal [1]: 6.9% |
| Cc1cc(N)c2ccccc2[n+]1CCCCCCCCCC[n+]1c(C)cc(N)c2ccccc21 [Dequalinium chloride] | – | – | 47.9 | Germination Percent Luciferase Signal [1, 8]: 22.3% |
| CO[C@H]1C[C@@H]2CC[C@@H](C)[C@@](O)(O2)C(=O)C(=O)N2CCCC[C@H]2C(=O)O[C@H]([C@H](C)C[C@@H]2CC[C@@H](O)[C@H](OC)C2)CC(=O)[C@H](C)/C=C(\C)[C@@H](O)[C@@H](OC)C(=O)[C@H](C)C[C@H](C)/C=C/C=C/C=C/1C [Rapamycin] | – | – | 61.8 | Germination Percent Luciferase Signal [1, 8]: 18.5% |
| COc1cccc(N(C)C(=S)Oc2ccc3c(c2)CCCC3)n1 [Liranaftate] | 64.8 | 37.6 | – | – |
| N=C(N)c1ccc(OCCCCCOc2ccc(C(=N)N)cc2)cc1 [Pentamidine HCl] | 6.5 | 38.3 | – | – |
| OC(CCN1CCCCC1)(c1ccccc1)C1CC2C=CC1C2 (stereo not drawn) [Biperiden HCl] | – | – | 56.6 | Germination Percent Luciferase Signal [1, 8]: 23.4%; Ability to inhibit yeast growth / replication in MIC and MFC testing [3]: unable to inhibit yeast growth |
| Clc1ccc(CSC(Cn2ccnc2)c2ccc(Cl)cc2Cl)cc1 (stereo not drawn) [Sulconazole nitrate] | 57.8 | 40.9 | – | – |
| CC(=O)N1CCN(c2ccc(OCC3COC(Cn4ccnc4)(c4ccc(Cl)cc4Cl)O3)cc2)CC1 (stereo not drawn) [Ketoconazole] | 154.8 | 35.4 | – | – |
| CO[C@H]1C[C@@H]2CC[C@@H](C)[C@@](O)(O2)C(=O)C(=O)N2CCCC[C@H]2C(=O)O[C@H]([C@H](C)C[C@@H]2CC[C@@H](OCCO)[C@H](OC)C2)CC(=O)[C@H](C)/C=C(\C)[C@@H](O)[C@@H](OC)C(=O)[C@H](C)C[C@H](C)/C=C/C=C/C=C/1C [Everolimus] | – | – | 67.7 | Germination Percent Luciferase Signal [1, 8]: 15.7% |
| C[C@@H](c1ncncc1F)[C@](O)(Cn1cncn1)c1ccc(F)cc1F [Voriconazole] | 173.9 | 35.8 | – | – |
